Patent US20250011300A1, “PIPERAZINYLSULFONYLARYL COMPOUNDS FOR TREATMENT OF BACTERIAL INFECTIONS” (Hoffmann-La Roche Inc., priority 2021, published 2025)
≈ marks a conversion by molar mass, not a printed value. Read-outs that look alike come from different tables or passages of the source.

How the values were obtained:
[1] = target: Escherichia coli LpxH (UDP-2,3-diacylglucosamine hydrolase) (Escherichia coli (strain K12), UniProt P43341); assay: 50% Inhibitory Concentration (IC50) to LpxH, UMP/CMP-Glo Glycosyltransferase Assay kit; type: biochemical
Description: Example 121: 50% Inhibitory Concentration (IC50) to UDP-2,3-diacylglucosamine hydrolase (LpxH)
The inhibitory potency of molecules to UDP-2,3-diacylglucosamine hydrolase (LpxH) was determined using the UMP/CMP-Glo™ Glycosyltransferase Assay kit. LpxH hydrolyzes the pyrophosphate bond of UDP-2,3-diacylglucosamine (UDP-DAG) to yield 2,3-diacylglucosamine 1-phosphate (lipid X) and UMP. The assay kit could quantify the UMP production by convert the UMP to ATP and generate light in a luciferase reaction. The compound's effect on the LpxH activity is detected by measuring the light using a luminometer (Envision).

E. coli (ATCC 25922) = assay: Minimal Inhibitory Concentration (MIC) assay, E. coli; type: cell-based; conditions: Escherichia coli, read-out: MIC E. coli ATCC 25922
How it was run: (§1)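 Broth microdilution in cation-adjusted Mueller Hinton broth, inoculum 5×10^5 CFU/mL, compounds 2-fold serially diluted from 10 mM DMSO stocks. Plates incubated 20 hours at 35° C in ambient air; MIC (μg/mL) is the lowest concentration preventing visible growth.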

[2] = system: K. pneumonia (ATCC 43816); assay: Minimal Inhibitory Concentration (MIC) assay, K. pneumonia; type: cell-based; conditions: Klebsiella pneumoniae, read-out: MIC K. pneumoniae ATCC43816
How it was run: as §1

[3] = ATCC25922, E. coli ATCC 25922, CAMHB, 20 hours at 35° C.
[4] = K. pneumoniae ATCC43816, CAMHB, 20 hours at 35° C.

Sequence of Escherichia coli LpxH (UDP-2,3-diacylglucosamine hydrolase) (P43341 whole entry): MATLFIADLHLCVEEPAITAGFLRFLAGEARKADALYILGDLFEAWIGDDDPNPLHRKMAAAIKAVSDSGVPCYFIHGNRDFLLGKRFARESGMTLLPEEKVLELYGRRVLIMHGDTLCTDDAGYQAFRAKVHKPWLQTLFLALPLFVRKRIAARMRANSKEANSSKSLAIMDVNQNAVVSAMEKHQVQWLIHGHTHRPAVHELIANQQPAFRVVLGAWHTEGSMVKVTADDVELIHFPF

| SMILES | IC50 [1] [nM] | MIC (E. coli (ATCC 25922); [3]) [µg/mL] | MIC [2, 4] [µg/mL] | MIC (E. coli (ATCC 25922); ATCC25922, 20 h) [µg/mL] | MIC ([2]; ATCC43816, 20 h) [µg/mL] |
| --- | --- | --- | --- | --- | --- |
| O=C1OC(CN2CC3(CNC3)C2)CN1c1ccc(S(=O)(=O)N2CCN(c3cc(C(F)(F)F)cc(Cl)n3)CC2)cc1 (stereo not drawn) [Example 32, 3-[4-[4-[6-Chloro-4-(trifluoromethyl)-2-pyridyl]piperazin-1-yl]sulfonylphenyl]-5-(2,6-diazaspiro[3.3]heptan-2-ylmethyl)oxazolidin-2-one] | 25 | 8.94 (≈ 14.9 µM) | 8.94 (≈ 14.9 µM) | – | – |
| Cc1cc(C(F)(F)c2ccccc2)nc(N2CCN(S(=O)(=O)c3ccc(N4CC(N)CC4=O)cc3)CC2)n1 (stereo not drawn) [Example 76, 4-Amino-1-[4-[4-[4-[difluoro(phenyl)methyl]-6-methyl-pyrimidin-2-yl]piperazin-1-yl]sulfonylphenyl]pyrrolidin-2-one] | 27.6 | 0.51 (≈ 0.94 µM) | 1.03 (≈ 1.9 µM) | – | – |
| CC(=O)NCC1CN(c2ccc(S(=O)(=O)N3CCN(c4cc(C(F)(F)F)cc(Cl)n4)CC3)cc2)C(=O)O1 (stereo not drawn) [Example 4, N-[[3-[4-[4-[6-chloro-4-(trifluoromethyl)-2-pyridyl]piperazin-1-yl]sulfonylphenyl]-2-oxo-oxazolidin-5-yl]methyl]acetamide] | 28.5 | 3.51 (≈ 6.25 µM) | 7.03 (≈ 12.5 µM) | – | – |
| CN1CCN(CC2CC(=O)N(c3ccc(S(=O)(=O)N4CCN(c5cc(C(F)(F)F)cc(Cl)n5)CC4)cc3)C2)CC1 (stereo not drawn) [Example 36, 1-[4-[4-[6-Chloro-4-(trifluoromethyl)-2-pyridyl]piperazin-1-yl]sulfonylphenyl]-4-[(4-methylpiperazin-1-yl)methyl]pyrrolidin-2-one] | 26.6 | 1.88 (≈ 3.13 µM) | 3.76 (≈ 6.26 µM) | – | – |
| NC1CN(CC2CN(c3ccc(S(=O)(=O)N4CCN(c5cc(C(F)(F)F)cc(Cl)n5)CC4)cc3)C(=O)O2)C1 (stereo not drawn) [Example 31, 5-[(3-Aminoazetidin-1-yl)methyl]-3-[4-[4-[6-chloro-4-(trifluoromethyl)-2-pyridyl]piperazin-1-yl]sulfonylphenyl]oxazolidin-2-one] | 6.96 | 2.15 (≈ 3.74 µM) | 4.31 (≈ 7.5 µM) | – | – |
| NC1CN(C2CC(=O)N(c3ccc(S(=O)(=O)N4CCN(c5cc(C(F)(F)F)cc(Cl)n5)CC4)cc3)C2)C1 (stereo not drawn) [Example 51, 4-(3-Aminoazetidin-1-yl)-1-[4-[4-[6-chloro-4-(trifluoromethyl)-2-pyridyl]piperazin-1-yl]sulfonylphenyl]pyrrolidin-2-one] | 53.7 | 3.78 (≈ 6.76 µM) | 15.1 (≈ 27.1 µM) | – | – |
| CC1C(N)CC(=O)N1c1ccc(S(=O)(=O)N2CCN(c3cc(C(F)(F)F)cc(Cl)n3)CC2)cc1 (stereo not drawn) [Example 61, 4-Amino-1-[4-[4-[6-chloro-4-(trifluoromethyl)-2-pyridyl]piperazin-1-yl]sulfonylphenyl]-5-methyl-pyrrolidin-2-one] | 50.2 | 6.47 (≈ 12.5 µM) | 6.47 (≈ 12.5 µM) | – | – |
| NC1CC(=O)N(c2ccc(S(=O)(=O)N3CCN(c4cc(C(F)(F)c5ccncc5)cc(Cl)n4)CC3)cc2)C1 (stereo not drawn) [Example 91, 4-Amino-1-[4-[4-[6-chloro-4-[difluoro(4-pyridyl)methyl]-2-pyridyl]piperazin-1-yl]sulfonylphenyl]pyrrolidin-2-one] | 10.7 | 1.76 (≈ 3.13 µM) | 1.76 (≈ 3.13 µM) | – | – |
| NC1CN(CC2CC(=O)N(c3ccc(S(=O)(=O)N4CCN(c5cc(C(F)(F)F)cc(Cl)n5)CC4)cc3)C2)C1 (stereo not drawn) [Example 40, 4-[(3-Aminoazetidin-1-yl)methyl]-1-[4-[4-[6-chloro-4-(trifluoromethyl)-2-pyridyl]piperazin-1-yl]sulfonylphenyl]pyrrolidin-2-one] | 20.9 | 1.79 (≈ 3.12 µM) | 1.79 (≈ 3.12 µM) | – | – |
| NC1CC(=O)N(c2ccc(S(=O)(=O)N3CCN(c4cc(C(F)(F)F)cc(Cl)n4)CC3)cc2)C1 (stereo not drawn) [Example 1, 4-Amino-1-[4-[4-[6-chloro-4-(trifluoromethyl)-2-pyridyl]piperazin-1-yl]sulfonylphenyl]pyrrolidin-2-one] | 260 | 1.45 (≈ 2.88 µM) | 1.93 (≈ 3.83 µM) | – | – |
| NCCN1CCC2(CC1)CN(c1ccc(S(=O)(=O)N3CCN(c4cc(C(F)(F)F)cc(Cl)n4)CC3)cc1)C(=O)O2 [Example 24, 8-(2-Aminoethyl)-3-[4-[4-[6-chloro-4-(trifluoromethyl)-2-pyridyl]piperazin-1-yl]sulfonylphenyl]-1-oxa-3,8-diazaspiro[4.5]decan-2-one] | 14.9 | 2.24 (≈ 3.71 µM) | 2.24 (≈ 3.71 µM) | – | – |
| NC1CC(=O)N(c2ccc(S(=O)(=O)N3CCN(c4cc(C(F)(F)C5CCCOC5)cc(Cl)n4)CC3)cc2)C1 (stereo not drawn) [Example 99, 4-Amino-1-[4-[4-[6-chloro-4-[difluoro(tetrahydropyran-3-yl)methyl]-2-pyridyl]piperazin-1-yl]sulfonylphenyl]pyrrolidin-2-one] | < 3.51 | 4.01 (≈ 7.03 µM) | 0.89 (≈ 1.56 µM) | – | – |
| NC1CC(=O)N(c2ccc(S(=O)(=O)N3CCN(c4cc(C(F)(F)C5=CCOCC5)cc(Cl)n4)CC3)cc2)C1 (stereo not drawn) [Example 98, 4-Amino-1-[4-[4-[6-chloro-4-[3,6-dihydro-2H-pyran-4-yl(difluoro)methyl]-2-pyridyl]piperazin-1-yl]sulfonylphenyl]pyrrolidin-2-one] | 47.5 | 0.89 (≈ 1.57 µM) | 0.89 (≈ 1.57 µM) | – | – |
| NCC1CN(c2ccc(S(=O)(=O)N3CCN(c4cc(C(F)(F)c5ccccc5)cc(Cl)n4)CC3)cc2)C(=O)O1 (stereo not drawn) [Example 88, 5-(Aminomethyl)-3-[4-[4-[6-chloro-4-[difluoro(phenyl)methyl]-2-pyridyl]piperazin-1-yl]sulfonylphenyl]oxazolidin-2-one] | 13.8 | 0.26 (≈ 0.45 µM) | 0.53 (≈ 0.917 µM) | – | – |
| O=C1CC2(CCNCC2)CN1c1ccc(S(=O)(=O)N2CCN(c3cc(C(F)(F)F)cc(Cl)n3)CC2)cc1 [Example 11, 2-[4-[4-[6-Chloro-4-(trifluoromethyl)-2-pyridyl]piperazin-1-yl]sulfonylphenyl]-2,8-diazaspiro[4.5]decan-3-one] | 23.3 | 2.1 (≈ 3.76 µM) | 4.2 (≈ 7.53 µM) | – | – |
| NC1CC(=O)N(c2ccc(S(=O)(=O)N3CCN(c4cc(C(F)(F)C5CCOC5)cc(Cl)n4)CC3)cc2)C1 (stereo not drawn) [Example 96, 4-Amino-1-[4-[4-[6-chloro-4-[difluoro(tetrahydrofuran-3-yl)methyl]-2-pyridyl]piperazin-1-yl]sulfonylphenyl]pyrrolidin-2-one] | 3.6 | 3.48 (≈ 6.26 µM) | 1.74 (≈ 3.13 µM) | – | – |
| O=C1OC2(CNC2)CN1c1ccc(S(=O)(=O)N2CCN(c3cc(C(F)(F)F)cc(Cl)n3)CC2)cc1 [Example 13] | 128 | 0.83 (≈ 1.56 µM) | 2.49 (≈ 4.68 µM) | – | – |
| O=C1O[C@@H]2CNCC[C@@H]2N1c1ccc(S(=O)(=O)N2CCN(c3cc(C(F)(F)F)cc(Cl)n3)CC2)cc1 [Example 17, (3aR,7aS)-1-[4-[4-[6-chloro-4-(trifluoromethyl)-2-pyridyl]piperazin-1-yl]sulfonylphenyl]-3a,4,5,6,7,7a-hexahydrooxazolo[5,4-c]pyridin-2-one] | 482 | – | – | 1.82 (≈ 3.33 µM) | 3.64 (≈ 6.67 µM) |
| N[C@@H]1CC(=O)N(c2ccc(S(=O)(=O)N3CCN(c4cc(C(F)(F)C5CNC5)cc(Cl)n4)CC3)cc2)C1 [Example 109, (4R)-4-amino-1-[4-[4-[4-[azetidin-3-yl(difluoro)methyl]-6-chloro-2-pyridyl]piperazin-1-yl]sulfonylphenyl]pyrrolidin-2-one] | 68.4 | 16.4 (≈ 30.3 µM) | 16.4 (≈ 30.3 µM) | – | – |
| N[C@@H]1CN(C2CC(=O)N(c3ccc(S(=O)(=O)N4CCN(c5cc(C(F)(F)F)cc(Cl)n5)CC4)cc3)C2)CC[C@H]1O (stereo partly drawn) [Example 57, 4-((3R,4R)-3-amino-4-hydroxypiperidin-1-yl)-1-(4-((4-(6-chloro-4-(trifluoromethyl)pyridin-2-yl)piperazin-1-yl)sulfonyl)phenyl)pyrrolidin-2-one] | 34.8 | 2 (≈ 3.32 µM) | 2 (≈ 3.32 µM) | – | – |
| O=C1CC(NC2CCNC2)CN1c1ccc(S(=O)(=O)N2CCN(c3cc(C(F)(F)F)cc(Cl)n3)CC2)cc1 (stereo not drawn) [Example 59, 1-[4-[4-[6-Chloro-4-(trifluoromethyl)-2-pyridyl]piperazin-1-yl]sulfonylphenyl]-4-(pyrrolidin-3-ylamino)pyrrolidin-2-one] | 96 | 3.81 (≈ 6.65 µM) | 7.62 (≈ 13.3 µM) | – | – |
| NCCNC1CC(=O)N(c2ccc(S(=O)(=O)N3CCN(c4cc(C(F)(F)F)cc(Cl)n4)CC3)cc2)C1 (stereo not drawn) [Example 45, 4-(2-Aminoethylamino)-1-[4-[4-[6-chloro-4-(trifluoromethyl)-2-pyridyl]piperazin-1-yl]sulfonylphenyl]pyrrolidin-2-one] | 45.7 | 3.65 (≈ 6.67 µM) | 7.29 (≈ 13.3 µM) | – | – |
| NC1CC(=O)N(c2ccc(S(=O)(=O)N3CCN(c4cc(C(F)(F)c5ccccc5)nc(Cl)n4)CC3)cc2)C1 (stereo not drawn) [Example 77, 4-Amino-1-[4-[4-[2-chloro-6-[difluoro(phenyl)methyl]pyrimidin-4-yl]piperazin-1-yl]sulfonylphenyl]pyrrolidin-2-one] | 7.1 | 0.44 (≈ 0.781 µM) | 0.44 (≈ 0.781 µM) | – | – |
